From patent US11529343B2, “Compositions and methods for identifying and treating dystonia disorders” (DUKE UNIVERSITY, priority 2015, dated 2022)
Peptide text beside a SMILES is read from it. * marks the point of attachment. Cbz = O=C(OCc1ccccc1)*

Key:
WT Torsin1a localization = assay: Torsin1a localization assay in WT Torsin1a-expressing assay cell line; assay type: cell-based, human; conditions: for percentage of cells with punctate EGFP-Torsin1a signal, WT cell line: single concentration: MG132 10 μM, PBA 20 mM
Text: To develop an assay capable of detecting conditions that correct a dystonia cellular phenotype, two human cell lines were generated that stably expressed EGFP-tagged human wild-type Torsin 1A, or delta-E Torsin1a, from a single cDNA copy integrated at a defined genomic site (FIG. 1, panel 1).
To limit variation in expression levels associated with random integration or transient expression, single copies of either WT or delta-E human TOR1A cDNAs with N-terminal EGFP fusions were inserted at the FRT site in Flp-In™ T-Rex™ 293 cells (Thermo Fisher Scientific #R780-07) via flippase recombinase-mediated cassette exchange according to the manufacturer's recommended protocols. This system includes an inducible expression feature (TetON) that avoids selective pressure for potential toxic effects of chronic expression of mutant proteins (FIG. 1, panel 1).
Flp-In T-Rex 293 cells inducibly expressing either WT or delta-E Torsin1a were maintained in selective media [DMEM-HG (Thermo Fisher Scientific #11965)+1× GlutaMax (Thermo Fisher Scientific #35050-061)+75 μg/mL hygromycin (Thermo Fisher Scientific #10687-010)+15 μg/mL blasticidin S (Thermo Fisher Scientific #R210-01)+10% tetracycline screened FBS (Hyclone #SH30070.03T)+1% penicillin/streptomycin/amphotericin (Mediatech Inc. #30-004-C)]. The cells were maintained at 37° C./5% CO2. All experiments were performed on cells with fewer than 5 passages. HEK 293T cells (ATCC #CRL-3216) were maintained in HEK-T media [DMEM (Thermo Fisher #11995)+10% FBS (Hyclone #SH30070.03)+1× GlutaMAX+1% penicillin/streptomycin/amphotericin] at 37° C./5% CO2. Human dermal fibroblast lines were maintained in FGM media [MEM (Thermo Fisher #11095-080)+15% FBS (Hyclone #SH30070.03)+1% Non-Essential Amino Acids (Lonza #13-114E)+1% penicillin/streptomycin/amphotericin] at 37° C./5% CO2.
This approach provides control over expression levels, avoiding the wide variation typically seen with random genomic integration or transient expression approaches. […] The mutant phenotype was measured as the percentage of cells with one or more EGFP puncta using automated high-content imaging analysis (see infra).
Development and validation of the high-content image analysis and assay performance under high-throughput screening conditions is presented in FIG. 9. […] Automated exposure times for each plate were determined by setting a target saturation of 25% in channel 1 in wells containing tetracycline-induced delta-E cells. Detected cells were gated according to nuclear area, length-to-width ratio, and perimeter-to-area ratio. […] EGFP fluorescence (Ch2: excitation 488 nm; emission 509 nm) was used for puncta detection. Automated exposure times for each plate were determined by setting a target saturation of 35% in channel 2 in wells containing induced delta-E cells. […]

[1] = tested on: delta-E Torsin1a localization; assay: Delta-E Torsin1a mislocalization assay (% cells with EGFP puncta, high-content imaging); assay type: cell-based, human; conditions: single concentration: MG132 10 μM, PBA 20 mM
striatal mGluR5 LTD [2] = assay: Long-term depression in cortico-striatal synapse, brain slices of heterozygous DYT1 knockin mice; assay type: cell-based; conditions: 20 μM, versus vehicle
Procedure: (§1) To directly test these predictions, whole-cell electrophysiology of striatal projection neurons was performed in acute brain slices to induce long-term depression in the presence of eIF2-alpha pathway-modulating drugs. Acute horizontal brain slices from the progeny of heterozygous ΔE Torsin1a knockin x homozygous Drd1a-tdTomato mice (age P15-21) were prepared largely as described in (Trusel et al., 2015, Cell Rep. 13, 1353-65). LTD was induced as in Trusel et al., 2015, with modifications.
(§2) Heterozygous delGAG Torsin1a knockin mice (courtesy of Dr. W. Dauer, University of Michigan) were crossed with homozygous Drd1a-tdTomato mice (Jackson Labs) and the progeny was used at postnatal day 15-21 for experiments. […]
(§3) Single slices were transferred to a recording chamber and superfused continuously with ACSF containing 50 μM picrotoxin at 32° C. and 3-4 mL/min. […] Evoked excitatory postsynaptic potentials (EPSPs) were recorded in the dorsolateral striatum, while stimulating every 30 seconds with a concentric bipolar electrode (FHC) in cortical layer V (see Trusel et al., Cell Reports, 2015). […] Baseline EPSPs were recorded for at least 10 min or until a stable baseline was reached. Data were acquired by pClamp v10 and analyzed using Clampfit v10.4, Origin v8.0, and GraphPad Prism v6.

striatal mGluR5 LTD [3] = assay: Long-term depression in cortico-striatal synapse, acute brain slices of WT mice; assay type: cell-based; conditions: pre-incubation 5 nM, 1 hr
Procedure: as §1, §2, §3

SMILES	percentage of cells with punctate EGFP-Torsin1a signal, WT cell line (WT Torsin1a localization)	percentage of cells with punctate EGFP-Torsin1a signal, delta-E cell line [1]	further results
O=C(O)CCCc1ccccc1 [PBA, phenylbutyric acid]	ameliorated the burden of cells with punctate pathology	ameliorated the burden of cells with punctate pathology	–
O=C(/C=C/c1ccccc1)NC(NC(=S)Nc1ccc(Cl)cc1)C(Cl)(Cl)Cl (centres unmarked) [Sal-003]	–	–	effect on LTD in brain slices heterozygous for the DYT1 knockin mutation (delGAG) (striatal mGluR5 LTD [2]): restored long-term depression
CC(C)C[C@@H](C=O)NC(=O)[C@H](CC(C)C)NC(=O)[C@H](CC(C)C)NC(=O)OCc1ccccc1 [MG132] (Cbz-Leu-Leu-Leu-aldehyde)	significantly increased	significantly increased	–
O=C(COc1ccc(Cl)cc1)NC1CCC(NC(=O)COc2ccc(Cl)cc2)CC1 (centres unmarked) [ISRIB]	–	–	Torsin1a expression levels, in words (WT Torsin1a localization; WT cell line): without effects on Torsin1a expression levels; effect on WT Torsin1a localization (cells with puncta), in words (WT Torsin1a localization; dose response, WT cell line): dose-dependent increase in cells with punctate Torsin1a localization; effect on LTD in WT brain slices (striatal mGluR5 LTD [3]): robustly inhibited LTD
